These results are taken from patent US6444671B1, “Cyclic AMP-specific phosphodiesterase inhibitors” (ICOS Corporation, priority 1999, dated 2002).

Series [1] concerns T1, recombinant human PDE4.
T1 construct: PDE4 IC50 (nM); other: recombinant human PDE4
Kind of series: PDE4 inhibition, recombinant human PDE4, [32P]cAMP charcoal separation assay. The class given is biochemical. As to the method: The compounds of structural formula (II) were tested for an ability to inhibit PDE4. The ability of a compound to inhibit PDE4 activity is related to the IC50 value for the compound, i.e., the concentration of inhibitor required for 50% inhibition of enzyme activity. The IC50 value for compounds of structural formula (II) were determined using recombinant human PDE4.
The production of recombinant human PDEs and the IC50 determinations can be accomplished by well-known methods in the art. Exemplary methods are described as follows:
Recombinant production of human PDE1B, PDE2, PDE4A, PDE4B, PDE4C, PDE4D, PDE5, and PDE7 was carried out similarly to that described in Example 7 of U.S. Pat. No. 5,702,936, incorporated herein by reference, except that the yeast transformation vector employed, which is derived from the basic ADH2 plasmid described in Price et al., Methods in Enzymology, 135, pp. 308-318 (1990), incorporated. yeast ADH2 promoter and terminator sequences and the Saccharomyces cerevisiae host was the protease-deficient strain BJ2-54 deposited on Aug. 31, 1998 with the American Type Culture Collection, Manassas, Va., under accession number ATCC 74465. Transformed host cells were grown in 2×SC-leu medium, pH 6.2, with trace metals, and vitamins. After 24 hours, YEP medium-containing glycerol was added to a final concentration of 2×YET/3% glycerol. Approximately 24 hr later, cells were harvested, washed, and stored at −70° C.
Phosphodiesterase activity of the preparations was determined as follows. PDE assays utilizing a charcoal separation technique were performed essentially as described in Loughney et al. (1996). In this assay, PDE activity converts [32P]cAMP or [32P]cGMP to the corresponding [32P]5′-AMP or [32P]5′-GMP in proportion to the amount of PDE activity present. The [32P]5′-AMP or [32P]5′-GMP then was quantitatively converted to free [32P]phosphate and unlabeled adenosine or guanosine by the action of snake venom 5′-nucleotidase. […] The assay was performed at 30° C. in a 100 μL reaction mixture containing (final concentrations) 40 mM Tris HCl (pH 8.0), 1 μM ZnSO4, 5 mM MgCl2, and 0.1 mg/mL bovine serum albumin (BSA) Alternatively, in assays assessing PDE1-specific activity, incubation mixtures further incorporated the use of 0.1 mM CaChe and 10 μg/mL calmodulin. PDE enzyme was present in quantities that yield<30% total hydrolysis of substrate (linear assay conditions). The assay was initiated by addition of substrate ([…] [32P]cAMP or cGMP), and the mixture was incubated for 12 minutes. […] After centrifugation (750×g for 3 minutes) to sediment the charcoal, a sample of the supernatant was taken for radioactivity determination in a scintillation counter and the PDE activity was calculated.

The conditions of series [2]: in vivo; cited from earlier work.
Series [3] deals with recombinant human PDE4. The following applies: reported value, background section; read-out: IC50 with respect to inhibiting recombinant human PDE4; cited from earlier work.

Like-named read-outs stand apart in the source and are kept apart here.

Usually IC50 stands for the concentration that gives 50% inhibition. As for `CCc1nn(C2CCCC2)c2cc([C@@H]3CN(C(=O)OC)C[C@@]3(C)CO)ccc12` [Example 4, Methyl (3S,4S)-4-(1-cyclopentyl-3-ethyl(1H-indazol-6-yl))-3-(hydroxymethyl)-3-methyl Pyrrolidine Carboxylate], the IC50 with recombinant human PDE4 [1] stood at 0.0793 µM. Consider R-rolipram, for which, in series [2], the “Emetic potential relative to the (+)-enantiomer (S-rolipram)” value is reported as “about ten-fold more emetic”. Turning to `CCc1nn(C2CCCC2)c2cc([C@@H]3CN(Cc4ccccc4)C[C@@]3(C)C(C)O)ccc12` (stereo partly drawn) [Example 1, (1S)-1-[(3S,4S)-4-(1-Cyclopentyl-3-ethyl(1H-indazol-6-yl))-3-methyl-1-benzylpyrrolidin-3-yl]ethan-1-ol], the IC50 with recombinant human PDE4 [1] was 0.316 µM.

In the case of `COc1ccc(C2CNC(=O)C2)cc1OC1CCCC1` (stereo not shown) [Rolipram, rolipram], the concentration for half-maximal inhibition (IC50) in the series on recombinant human PDE4 [3] was approximately 0.2 µM. Regarding `CCc1nn(C2CCCC2)c2cc([C@@H]3CN(Cc4ccccc4)C[C@@]3(C)CO)ccc12` [Example 3, [(3S,4S)-4-(1-Cyclopentyl-3-ethyl(1H-indazol-6-yl))-3-methyl-1-benzylpyrrolidin-3-yl]methan-1-ol], the IC50 with recombinant human PDE4 [1] worked out at 0.0061 µM. For `COC(=O)N1CC(c2ccc(OC)c(OC3CCCC3)c2)C(C)(C(C)=O)C1` (stereo not shown) [formula (I)], the IC50 in the series on recombinant human PDE4 [3] was approximately 0.002 µM. `CCc1nn(C2CCCC2)c2cc([C@@H]3CN(Cc4ccccc4)C[C@@]3(C)C(C)O)ccc12` (stereo partly drawn) [Example 2, (1R)-1-[(3S,4S)-4-(1-Cyclopentyl-3-ethyl(1H-indazol-6-yl))-3-methyl-1-benzylpyrrolidin-3-yl]ethan-1-ol]: in the series on recombinant human PDE4 [1], the IC50 stood at 0.0876 µM.
